#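 Exposure lasted 48 hours, with cells grown in 96-well plates and compounds tested at five concentrations. Here, GI50 denotes the concentration required for 50% inhibition of growth. The concentration for full growth arrest is given as TGI.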
# Tests used:
# Test in all cases: DTP human tumour cell line panel, 48 h
# 786-0 renal = system: 786-0 renal
# A498 renal = system: A498 renal
# A549 NSCLC = system: A549 NSCLC
# ACHN renal = system: ACHN renal
# BT-549 breast = system: BT-549 breast
# CAKI-1 renal = system: CAKI-1 renal
# CCRF-CEM leukemia = system: CCRF-CEM leukemia
# COLO 205 colon = system: COLO 205 colon
# DU-145 prostate = system: DU-145 prostate
# EKVX NSCLC = system: EKVX NSCLC
# HCC-2998 colon = system: HCC-2998 colon
# HCT-116 colon = system: HCT-116 colon
# HCT-15 colon = system: HCT-15 colon
# HL-60(TB) leukemia = system: HL-60(TB) leukemia
# HOP-62 NSCLC = system: HOP-62 NSCLC
# HOP-92 NSCLC = system: HOP-92 NSCLC
# HS 578T breast = system: HS 578T breast
# HT29 colon = system: HT29 colon
# IGROV1 ovarian = system: IGROV1 ovarian
# K-562 leukemia = system: K-562 leukemia
# KM12 colon = system: KM12 colon
# LOX IMVI melanoma = system: LOX IMVI melanoma
# M14 melanoma = system: M14 melanoma
# MALME-3M melanoma = system: MALME-3M melanoma
# MCF7 breast = system: MCF7 breast
# MDA-MB-231 breast = system: MDA-MB-231 breast
# MDA-MB-435 = system: MDA-MB-435
# MDA-MB-468 breast = system: MDA-MB-468 breast
# MOLT-4 leukemia = system: MOLT-4 leukemia
# NCI-H226 lung = system: NCI-H226 lung
# NCI-H23 lung = system: NCI-H23 lung
# NCI-H460 lung = system: NCI-H460 lung
# NCI-H522 lung = system: NCI-H522 lung
# NCI/ADR-RES ovarian = system: NCI/ADR-RES ovarian
# OVCAR-3 ovarian = system: OVCAR-3 ovarian
# OVCAR-4 ovarian = system: OVCAR-4 ovarian
# OVCAR-5 ovarian = system: OVCAR-5 ovarian
# OVCAR-8 ovarian = system: OVCAR-8 ovarian
# PC-3 prostate = system: PC-3 prostate
# RPMI-8226 leukemia = system: RPMI-8226 leukemia
# RXF 393 renal = system: RXF 393 renal
# SF-268 CNS = system: SF-268 CNS
# SF-295 CNS = system: SF-295 CNS
# SF-539 CNS = system: SF-539 CNS
# SK-MEL-2 melanoma = system: SK-MEL-2 melanoma
# SK-MEL-28 melanoma = system: SK-MEL-28 melanoma
# SK-MEL-5 melanoma = system: SK-MEL-5 melanoma
# SK-OV-3 ovarian = system: SK-OV-3 ovarian
# SN12C renal = system: SN12C renal
# SNB-19 CNS = system: SNB-19 CNS
# SNB-75 CNS = system: SNB-75 CNS
# SR leukemia = system: SR leukemia
# SW-620 colon = system: SW-620 colon
# T-47D breast = system: T-47D breast
# TK-10 renal = system: TK-10 renal
# U251 CNS = system: U251 CNS
# UACC-257 melanoma = system: UACC-257 melanoma
# UACC-62 melanoma = system: UACC-62 melanoma
# UO-31 renal = system: UO-31 renal
compound,measurement,setting,value
COc1nc(N)ncc1-c1ccc2ncnc(N3CCc4cc(F)c(Cl)cc43)c2c1,GI50,786-0 renal,1.49 µM
same,TGI,786-0 renal,3.38 µM
same,GI50,A498 renal,1.54 µM
same,TGI,A498 renal,5.43 µM
same,GI50,A549 NSCLC,2.04 µM
same,TGI,A549 NSCLC,8.55 µM
same,GI50,ACHN renal,1.21 µM
same,TGI,ACHN renal,4.22 µM
same,GI50,BT-549 breast,6.44 µM
same,TGI,BT-549 breast,> 100 µM
same,GI50,CAKI-1 renal,1.2 µM
same,TGI,CAKI-1 renal,3.78 µM
same,GI50,CCRF-CEM leukemia,26 µM
same,TGI,CCRF-CEM leukemia,> 100 µM
same,GI50,COLO 205 colon,3.37 µM
same,TGI,COLO 205 colon,> 100 µM
same,GI50,DU-145 prostate,3.82 µM
same,TGI,DU-145 prostate,36.2 µM
same,GI50,EKVX NSCLC,1.93 µM
same,TGI,EKVX NSCLC,86.2 µM
same,GI50,HCC-2998 colon,2.79 µM
same,TGI,HCC-2998 colon,10.1 µM
same,GI50,HCT-116 colon,2.93 µM
same,TGI,HCT-116 colon,11.3 µM
same,GI50,HCT-15 colon,3.04 µM
same,TGI,HCT-15 colon,24.7 µM
same,GI50,HL-60(TB) leukemia,3.08 µM
same,TGI,HL-60(TB) leukemia,> 100 µM
same,GI50,HOP-62 NSCLC,1.47 µM
same,TGI,HOP-62 NSCLC,5.85 µM
same,GI50,HOP-92 NSCLC,1.81 µM
same,TGI,HOP-92 NSCLC,7.23 µM
same,GI50,HS 578T breast,2 µM
same,TGI,HS 578T breast,8.4 µM
same,GI50,HT29 colon,7.86 µM
same,TGI,HT29 colon,52.2 µM
same,GI50,IGROV1 ovarian,0.594 µM
same,TGI,IGROV1 ovarian,3.82 µM
same,GI50,K-562 leukemia,6.45 µM
same,TGI,K-562 leukemia,> 100 µM
same,GI50,KM12 colon,10.4 µM
same,TGI,KM12 colon,> 100 µM
same,GI50,LOX IMVI melanoma,3.11 µM
same,TGI,LOX IMVI melanoma,14.8 µM
same,GI50,M14 melanoma,18.9 µM
same,TGI,M14 melanoma,> 100 µM
same,GI50,MALME-3M melanoma,8.68 µM
same,TGI,MALME-3M melanoma,49.4 µM
same,GI50,MCF7 breast,3.11 µM
same,TGI,MCF7 breast,22 µM
same,GI50,MDA-MB-231 breast,1.84 µM
same,TGI,MDA-MB-231 breast,6.46 µM
same,GI50,MDA-MB-435,6.94 µM
same,TGI,MDA-MB-435,> 100 µM
same,GI50,MDA-MB-468 breast,0.269 µM
same,TGI,MDA-MB-468 breast,1.81 µM
same,GI50,MOLT-4 leukemia,11.7 µM
same,TGI,MOLT-4 leukemia,> 100 µM
same,GI50,NCI-H226 lung,1.15 µM
same,TGI,NCI-H226 lung,4.21 µM
same,GI50,NCI-H23 lung,4.26 µM
same,TGI,NCI-H23 lung,39.1 µM
same,GI50,NCI-H460 lung,2.65 µM
same,TGI,NCI-H460 lung,7.97 µM
same,GI50,NCI-H522 lung,2.3 µM
same,TGI,NCI-H522 lung,11.5 µM
same,GI50,NCI/ADR-RES ovarian,2.73 µM
same,TGI,NCI/ADR-RES ovarian,15.7 µM
same,GI50,OVCAR-3 ovarian,2.3 µM
same,TGI,OVCAR-3 ovarian,11.2 µM
same,GI50,OVCAR-4 ovarian,1.87 µM
same,TGI,OVCAR-4 ovarian,4.28 µM
same,GI50,OVCAR-5 ovarian,3.92 µM
same,TGI,OVCAR-5 ovarian,> 100 µM
same,GI50,OVCAR-8 ovarian,2.33 µM
same,TGI,OVCAR-8 ovarian,9.2 µM
same,GI50,PC-3 prostate,10.6 µM
same,TGI,PC-3 prostate,> 100 µM
same,GI50,RPMI-8226 leukemia,3.26 µM
same,TGI,RPMI-8226 leukemia,> 100 µM
same,GI50,RXF 393 renal,1.5 µM
same,TGI,RXF 393 renal,5.28 µM
same,GI50,SF-268 CNS,12.3 µM
same,TGI,SF-268 CNS,> 100 µM
same,GI50,SF-295 CNS,2.37 µM
same,TGI,SF-295 CNS,7.58 µM
same,GI50,SF-539 CNS,2.96 µM
same,TGI,SF-539 CNS,12.5 µM
same,GI50,SK-MEL-2 melanoma,> 100 µM
same,TGI,SK-MEL-2 melanoma,> 100 µM
same,GI50,SK-MEL-28 melanoma,5.2 µM
same,TGI,SK-MEL-28 melanoma,18.9 µM
same,GI50,SK-MEL-5 melanoma,4.15 µM
same,TGI,SK-MEL-5 melanoma,> 100 µM
same,GI50,SK-OV-3 ovarian,1.62 µM
same,TGI,SK-OV-3 ovarian,4.03 µM
same,GI50,SN12C renal,1.92 µM
same,TGI,SN12C renal,10.1 µM
same,GI50,SNB-19 CNS,2.21 µM
same,TGI,SNB-19 CNS,12.2 µM
same,GI50,SNB-75 CNS,1.47 µM
same,TGI,SNB-75 CNS,4.02 µM
same,GI50,SR leukemia,3.09 µM
same,TGI,SR leukemia,> 100 µM
same,GI50,SW-620 colon,4.26 µM
same,TGI,SW-620 colon,> 100 µM
same,GI50,T-47D breast,1.61 µM
same,TGI,T-47D breast,7.67 µM
same,GI50,TK-10 renal,0.703 µM
same,TGI,TK-10 renal,4.23 µM
same,GI50,U251 CNS,2.3 µM
same,TGI,U251 CNS,7.74 µM
same,GI50,UACC-257 melanoma,8.26 µM
same,TGI,UACC-257 melanoma,83.6 µM
same,GI50,UACC-62 melanoma,3.92 µM
same,TGI,UACC-62 melanoma,19.9 µM
same,GI50,UO-31 renal,0.583 µM
same,TGI,UO-31 renal,3.99 µM

# — PubChem BioAssay (NCI)
